Test results from patent publication US11970497B2, “Tricyclic AKR1C3 dependent KARS inhibitors” (Novartis AG, priority 2019, dated 2024).

Legend:
Test in all cases: Expanded lung cancer cell line proliferation assay
Format in all cases: cell-based
[1] = test system: A427; settings: Homo sapiens, A-427; A427, 72 h, average of PrestoBlue and Cell Titer Glo; AKR1C3 0.2 TPM; read-out: Absolute Qualified AC50
Text: (§1) Cellular Proliferation Assay to Assess Compound Activity in an Expanded Panel of 57 NRF2 Pathway Mutant and Wild Type Lung Cancer Cell Lines.
(§2) Both the PrestoBlue Cell Viability Reagent and Cell Titer Glo were multiplexed together as the final assay readout. PrestoBlue is a cell permeable resazurin-based solution that utilizes the reducing power of living cells to quantitatively measure their proliferation. Cell Titer Glo measures the amount of ATP present, an indicator of metabolically active cells.
(§3) Expanded Lung Cancer Cell Line Proliferation Assay Outline, Analysis and Profiling Results
(§4) Cells were seeded into 384 well assay plates (Greiner Bio-One, Catalog #781080) using the Thermo Scientific Matrix WellMate microplate dispenser and Thermo Scientific Matrix WellMate small bore disposable tubing cartridges (Catalog #201-30002) in 30 μl of growth media (RPMI-1640 supplemented with 10% fetal bovine serum and 1% penicillin/streptomycin) per well (1000 to 2000 cells/well depending on doubling time). Following cell plating, assay plates were placed into tissue culture incubator at 37° C./5% CO2 overnight. The next day one assay plate for each cell line was used for a Day 0 Cell Titer Glo and PrestoBlue readout. 3 μl of PrestoBlue Cell Viability Reagent (Thermo Scientific, Catalog #A13262) was added to each well and then assay plates were incubated at 37° C./5% CO2 for 30 minutes prior to fluorescence readout on the EnVision 2105 multimode plate reader (Perkin Elmer). Following the PrestoBlue readout 18 μl of Cell Titer Glo (Promega, Catalog #G7572) was then added to each well, allowing plates to incubate at room temperature for 10 minutes prior to luminescence readout on the EnVision. Compound was then added to the remaining assay plates (each cell line run in triplicates) using the Labcyte Inc Echo 555 acoustic liquid handler. Compounds were arrayed into a Labcyte Inc Echo qualified 384 well LDV microplate (Cat #LP-0200-GNF10). Compounds were serially diluted 1:3.16 to generate an 8 point dose response for a final top concentration of 1 μM. DMSO (0.3%) was used as the neutral control (NC) and MG132 (30 μM) was used as the active control (AC). 90 nl of compounds were added to 30 μl of cells using the Labcyte Inc Echo 555 acoustic liquid handler for a final DMSO assay concentration of 0.3%. Following compound addition, assay plates were spun down in a tabletop centrifuge at 500 rpm for 1 minute and then placed into tissue culture incubator at 37° C./5% CO2 for 72 h. Following the 72 h incubation, all assay plates were readout using PrestoBlue and Cell Titer Glo using the same conditions previously described for the Day 0 readout. The Day 0 readout (untreated cells) was used to compare to the 72 h DMSO treated samples on each assay plate as a way of tracking each cell line's fold growth. NC1 control based normalization was used for data analysis in Helios, which incorporates the DMSO neutral control (NC) and MG132 active control (AC) for generating dose response curves that are then used to calculate the Absolute Qualified AC50 calls for each compound and cell line.
(§5) NC1 normalization calculation model: NC1: xn=±(x−NC)/(AC−NC)
(§6) +/− is set by the inhibition type parameter setting where NC and AC are averages (mean or median) over the corresponding NC and AC well values. The Qualified Absolute AC50 values for Compound 36 and Compound 40 are listed in the table below and are represented as the average activity in both the PrestoBlue and Cell Titer Glo assay readouts.
(§7) Absolute Qualified AC50 Values Listed Below are a Representation of Each Compounds' Average Activity in Both the PrestoBlue and Cell Titer Glo Assay Readouts.

[2] = test system: A549; settings: Homo sapiens; A549, 72 h, average of PrestoBlue and Cell Titer Glo; AKR1C3 3017.9 TPM; read-out: Absolute Qualified AC50
Text: as §1, §2, §3, §4, §5, §6, §7

[3] = test system: CAL-12T; settings: Homo sapiens, 72 h, average of PrestoBlue and Cell Titer Glo, AKR1C3 23.6 TPM, read-out: Absolute Qualified AC50
Text: as §1, §2, §3, §4, §5, §6, §7

[4] = test system: HCC2108; settings: HCC2108, 72 h, average of PrestoBlue and Cell Titer Glo; AKR1C3 0.5 TPM; read-out: Absolute Qualified AC50
Text: as §1, §2, §3, §4, §5, §6, §7

[5] = test system: NCI-H1299; settings: Homo sapiens; NCI-H1299, 72 h, average of PrestoBlue and Cell Titer Glo; AKR1C3 1.3 TPM; read-out: Absolute Qualified AC50
Text: as §1, §2, §3, §4, §5, §6, §7

[6] = test system: NCI-H1435; settings: NCI-H1435, 72 h, average of PrestoBlue and Cell Titer Glo; AKR1C3 171.1 TPM; read-out: Absolute Qualified AC50
Text: as §1, §2, §3, §4, §5, §6, §7

[7] = test system: NCI-H2030; settings: Homo sapiens; NCI-H2030, 72 h, average of PrestoBlue and Cell Titer Glo; AKR1C3 232.7 TPM; read-out: Absolute Qualified AC50
Text: as §1, §2, §3, §4, §5, §6, §7

[8] = test system: NCI-H2172; settings: NCI-H2172, 72 h, average of PrestoBlue and Cell Titer Glo; AKR1C3 1522.4 TPM; read-out: Absolute Qualified AC50
Text: as §1, §2, §3, §4, §5, §6, §7

[9] = test system: NCI-H2347; settings: Homo sapiens; NCI-H2347, 72 h, average of PrestoBlue and Cell Titer Glo; AKR1C3 8.9 TPM; read-out: Absolute Qualified AC50
Text: as §1, §2, §3, §4, §5, §6, §7

[10] = test system: NCI-H520; settings: Homo sapiens; NCI-H520, 72 h, average of PrestoBlue and Cell Titer Glo; AKR1C3 608.9 TPM; read-out: Absolute Qualified AC50
Text: as §1, §2, §3, §4, §5, §6, §7

[11] = test system: NCI-H661; settings: Homo sapiens; NCI-H661, 72 h, average of PrestoBlue and Cell Titer Glo; AKR1C3 3 TPM; read-out: Absolute Qualified AC50
Text: as §1, §2, §3, §4, §5, §6, §7

[12] = test system: NCI-H810; settings: Homo sapiens; NCI-H810, 72 h, average of PrestoBlue and Cell Titer Glo; AKR1C3 52.5 TPM; read-out: Absolute Qualified AC50
Text: as §1, §2, §3, §4, §5, §6, §7

[13] = test system: PC-14; settings: Homo sapiens; PC-14, 72 h, average of PrestoBlue and Cell Titer Glo; AKR1C3 1466.3 TPM; read-out: Absolute Qualified AC50
Text: as §1, §2, §3, §4, §5, §6, §7

[14] = test system: SW1271; settings: SW1271, 72 h, average of PrestoBlue and Cell Titer Glo; AKR1C3 2.4 TPM; read-out: Absolute Qualified AC50
Text: as §1, §2, §3, §4, §5, §6, §7

SMILES	AC50 [1] [nM]	AC50 [2] [nM]	AC50 [3] [nM]	AC50 [4] [nM]	AC50 [5] [nM]	AC50 [6] [nM]	AC50 [7] [nM]	AC50 [8] [nM]	AC50 [9] [nM]	AC50 [10] [nM]	AC50 [11] [nM]	AC50 [12] [nM]	AC50 [13] [nM]	AC50 [14] [nM]
CN1c2ccc(F)cc2C(=O)CC12CCN(C(=O)NCc1ccc(F)c(NCCO)c1)CC2 [Example 36, 6′-fluoro-N-(4-fluoro-3-((2-hydroxyethyl)amino)benzyl)-1′-methyl-4′-oxo-3′,4′-dihydro-1′H-spiro[piperidine-4,2′-quinoline]-1-carboxamide]	> 1000	301	> 1000	> 1000	> 1000	478	648	> 1000	> 1000	> 1000	> 1000	> 1000	308	> 1000
O=C1CC2(CCN(C(=O)NCc3ccc(F)cc3)CC2)Nc2ccc(F)cc21 [Example 40]	> 1000	56	> 1000	> 1000	> 1000	273	364	149	> 1000	> 1000	> 1000	983	92	> 1000
